Literature values as cited in patent US20170348252A1, “Preparation and Use of Ketamine Derivatives and Ketamine Modifiers in the Treatment of Pain” (priority 2016, published 2017).

Conditions: relative to thiopental; from Anirudda Pai et al. 2007

In the case of `CNC1(c2ccccc2Cl)CCCCC1=O` (racemic) [Ketamine, 2-(2-chlorophenyl)-2-methylamino cyclohexanone], the lipid solubility is given as 5-10 times that of thiopental.
